By IC50 is commonly meant the concentration that inhibits the measured activity by half.

Assay type in all cases: cell-based
Test [1] deals with T1, human EGFR E746-A750 deletion and T790M Mutation (Homo sapiens, UniProt P00533, DEL746-750/T790M).
T1 construct: expressed in transfected cells; host or cells: Ba/F3 (murine pro-B) cells transduced with lentivirus from pLVX-IRES puro
As to the kind of experiment: Ba/F3-EGFR-Del/T790M cell anti-proliferative assay (CellTiter 96 MTS, 72 h). As to conditions: Ba/F3-EGFR-Del/T790M cells. On the procedure: An expression vector, pLVX-IRES puro (Clontech) coding for human EGFR E746-A750 deletion and T790M Mutation, was transfected into HEK293 cells by the Trans-Lentiviral ORF Packaging System (Thermo Scientific), to produce virus encoding EGFR exon 19 deletion and T790M mutations. Ba/F3 (DSMZ) cells maintained in RPMI 1640 medium supplemented with 10% fetal bovine serum, 200 μM L-glutamine/200 μg/mL penicillin/200 μg/mL streptomycin (Life Technology) and 10 ng/mL IL-3 (R&D system), were infected by EGFR E746-A750 deletion and T790M Mutation virus and subsequently selected by puromycin (Life Technology) selection and IL-3 depletion. […] The anti-proliferative activity of compounds was determined as follows: BaF3-EGFR-Del/T790M cells seeded in 96 well plates (2500 cells/well) were treated with test compound (dissolved in DMSO) at a series of concentrations (4-fold dilution, top concentration: 10,000 nM). The plates were incubated for 72 h in a 37° C. incubator with 5% CO2, and the number of viable cells in each well were measured indirectly by CellTiter 96® Aqueous One Solution Cell Proliferation Assay (Promega; this assay is a colorimetric method for determining the number of viable cells through measurement of their metabolic activity by detection of enzymatic conversion of tetrazolium salts into blue formazan derivatives). Reagent (20 μL) was added into each well, and the plates were returned to the incubator for 2 h. The absorbance in each well was then measured at 490 nm using an Envision plate reader (Perkin Elmer).

The target in test [2] is T2, human EGFR exon 20 insertion NPG (H773_V774insNPG) (Homo sapiens, UniProt P00533, INS772GNP).
T2 construct: expressed in transfected cells; host or cells: Ba/F3 (murine pro-B) cells transduced with lentivirus from pLVX-IRES puro
T2 sequence (P00533 with tags, fused parts or gaps INS772GNP): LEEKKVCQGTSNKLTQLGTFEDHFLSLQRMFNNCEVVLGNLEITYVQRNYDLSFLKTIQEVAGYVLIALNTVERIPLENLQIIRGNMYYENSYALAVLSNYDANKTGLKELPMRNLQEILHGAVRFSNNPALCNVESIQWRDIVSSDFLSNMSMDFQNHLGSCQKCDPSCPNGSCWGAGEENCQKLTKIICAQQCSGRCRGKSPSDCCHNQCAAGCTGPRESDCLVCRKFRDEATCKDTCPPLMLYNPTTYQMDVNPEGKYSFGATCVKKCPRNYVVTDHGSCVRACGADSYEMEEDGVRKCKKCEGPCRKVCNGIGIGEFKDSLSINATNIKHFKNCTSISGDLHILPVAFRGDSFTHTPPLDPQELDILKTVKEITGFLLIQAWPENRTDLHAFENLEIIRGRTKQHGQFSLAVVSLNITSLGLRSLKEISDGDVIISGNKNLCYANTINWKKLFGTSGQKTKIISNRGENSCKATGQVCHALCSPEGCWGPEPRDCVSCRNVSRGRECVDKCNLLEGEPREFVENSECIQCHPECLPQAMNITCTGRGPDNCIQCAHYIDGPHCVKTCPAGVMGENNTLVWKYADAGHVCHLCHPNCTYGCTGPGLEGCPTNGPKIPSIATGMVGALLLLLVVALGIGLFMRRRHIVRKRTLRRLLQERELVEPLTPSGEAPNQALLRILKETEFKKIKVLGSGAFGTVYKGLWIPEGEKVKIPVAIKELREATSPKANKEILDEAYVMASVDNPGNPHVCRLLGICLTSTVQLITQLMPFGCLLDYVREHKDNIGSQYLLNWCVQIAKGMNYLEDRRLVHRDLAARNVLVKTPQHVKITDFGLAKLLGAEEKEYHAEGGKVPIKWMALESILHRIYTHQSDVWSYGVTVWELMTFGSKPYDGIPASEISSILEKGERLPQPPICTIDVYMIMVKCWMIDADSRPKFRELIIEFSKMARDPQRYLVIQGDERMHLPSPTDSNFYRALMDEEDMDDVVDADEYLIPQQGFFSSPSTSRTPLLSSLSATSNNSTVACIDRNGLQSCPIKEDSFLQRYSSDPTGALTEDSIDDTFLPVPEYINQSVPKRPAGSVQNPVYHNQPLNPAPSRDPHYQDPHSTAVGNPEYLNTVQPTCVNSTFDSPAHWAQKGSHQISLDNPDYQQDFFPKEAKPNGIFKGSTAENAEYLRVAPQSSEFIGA
As to the kind of experiment: Ba/F3-EGFR-Exon20-NPG cell anti-proliferative assay (CellTiter 96 MTS, 72 h). As to conditions: Ba/F3-EGFR-Exon20-NPG cells. Here is the method: An expression vector, pLVX-IRES puro (Clontech) coding for human EGFR exon 20 insertions NPG (H773_V774insNPG) or ASV (V769_D770insASV), was transfected into HEK293 cells by the Trans-Lentiviral ORF Packaging System (Thermo Scientific), to produce virus encoding EGFR exon 20 insertions. Ba/F3 (DSMZ) cells maintained in RPMI 1640 medium supplemented with 10% fetal bovine serum, 200 μM L-glutamine/l 200 μg/mL penicillin/200 μg/mL streptomycin (Life Technology) and 10 ng/mL IL-3 (R&D system), were infected by EGFR Exon20 virus and subsequently selected by puromycin (Life Technology) selection and IL-3 depletion. […] The anti-proliferative activity of compounds were determined as follows: BaF3-EGFR-Exon20 cells (NPG or ASV) seeded in 96 well plates (2500 cells/well) were treated with test compound (dissolved in DMSO) at a series of concentrations (4-fold dilution, top concentration: 10,000 nM). The plates were incubated for 72 h in a 37° C. incubator with 5% CO2, and the number of viable cells in each well were measured indirectly by CellTiter 96® Aqueous One Solution Cell Proliferation Assay (Promega) This assay is a colorimetric method for determining the number of viable cells through measurement of their metabolic activity by detection of enzymatic conversion of tetrazolium salts into blue formazan derivatives. Reagent (20 μL) was added into each well, and the plates were returned to the incubator for 2 h. The absorbance in each well was then measured at 490 nm using an Envision plate reader (Perkin Elmer).

The target in test [3] is T3, Her2 exon 20 YVMA insertion (A775_G776ins YVMA) (Homo sapiens, UniProt P04626, INS775YVMA).
T3 construct: expressed in transfected cells; host or cells: Ba/F3 (murine pro-B) cells transduced with lentivirus from pLVX-IRES puro
T3 sequence (P04626 with tags, fused parts or gaps INS775YVMA): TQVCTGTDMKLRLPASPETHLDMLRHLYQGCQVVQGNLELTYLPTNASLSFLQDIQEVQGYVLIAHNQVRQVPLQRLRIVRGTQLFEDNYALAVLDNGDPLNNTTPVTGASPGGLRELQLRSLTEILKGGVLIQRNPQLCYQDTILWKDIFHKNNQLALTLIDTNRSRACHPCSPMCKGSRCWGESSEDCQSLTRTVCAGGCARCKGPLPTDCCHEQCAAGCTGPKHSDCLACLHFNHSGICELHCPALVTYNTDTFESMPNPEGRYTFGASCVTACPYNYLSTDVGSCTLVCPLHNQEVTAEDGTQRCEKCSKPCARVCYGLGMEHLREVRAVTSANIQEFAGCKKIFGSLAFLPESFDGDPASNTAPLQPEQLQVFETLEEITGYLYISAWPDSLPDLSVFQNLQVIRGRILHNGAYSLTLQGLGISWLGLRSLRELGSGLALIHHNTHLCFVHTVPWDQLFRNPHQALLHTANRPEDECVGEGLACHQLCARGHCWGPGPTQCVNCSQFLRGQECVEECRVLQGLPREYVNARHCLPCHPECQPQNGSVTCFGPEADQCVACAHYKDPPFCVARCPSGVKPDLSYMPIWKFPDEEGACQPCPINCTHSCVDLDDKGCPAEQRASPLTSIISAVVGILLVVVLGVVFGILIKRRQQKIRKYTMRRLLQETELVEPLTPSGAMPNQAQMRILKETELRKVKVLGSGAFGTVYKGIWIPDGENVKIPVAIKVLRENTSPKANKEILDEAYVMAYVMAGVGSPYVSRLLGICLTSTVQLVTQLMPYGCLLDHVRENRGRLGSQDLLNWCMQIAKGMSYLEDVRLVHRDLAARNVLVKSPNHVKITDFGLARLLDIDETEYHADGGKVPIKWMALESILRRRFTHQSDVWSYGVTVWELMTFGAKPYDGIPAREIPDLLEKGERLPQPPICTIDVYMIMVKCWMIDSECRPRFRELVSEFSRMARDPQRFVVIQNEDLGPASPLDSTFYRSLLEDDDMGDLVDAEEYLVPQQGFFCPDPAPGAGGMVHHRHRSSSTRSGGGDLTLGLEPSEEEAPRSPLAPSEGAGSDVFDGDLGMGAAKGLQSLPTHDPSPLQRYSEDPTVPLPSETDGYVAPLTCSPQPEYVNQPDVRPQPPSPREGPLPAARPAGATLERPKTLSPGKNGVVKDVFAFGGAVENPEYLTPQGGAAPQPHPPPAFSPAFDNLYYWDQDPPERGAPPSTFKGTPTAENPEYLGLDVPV
Briefly: Ba/F3-Her2 Exon20 YVMA cell anti-proliferative assay (CellTiter 96 MTS, 72 h). As to conditions: Ba/F3-Her2 Exon20 YVMA cells. From the text: A compound's ability in selectively inhibiting Her2 exon 20 YVMA insertion mutations can be assessed using Ba/F3 cells, a murine pro-B cell line, which have been transduced with Her2 Exon20 YVMA insertions. An expression vector, pLVX-IRES puro (Clontech) coding for […] (A775_G776ins YVMA), was transfected into HEK293 cells by the Trans-Lentiviral ORF Packaging System (Thermo Scientific), to produce virus encoding EGFR exon 20 insertions. Ba/F3 (DSMZ) cells maintained in RPMI 1640 medium supplemented with 10% fetal bovine serum, 200 μM L-glutamine/200 μg/mL penicillin/200 μg/mL streptomycin (Life Technology) and 10 ng/mL IL-3 (R&D system), were infected by EGFR Exon20 virus and subsequently selected by puromycin (Life Technology) selection and IL-3 depletion. Ba/F3 cells expressing Her2 Exon20 YVMA insertions (named Ba/F3-Her2 Exon20 YVMA) can proliferate in the absence of IL-3. The anti-proliferative activity of compounds was determined as follows: BaF3-Her2 Exon20 YVMA cells seeded in 96 well plates (2500 cells/well) were treated with test compound (dissolved in DMSO) at a series of concentrations (4-fold dilution, top concentration: 10,000 nM). The plates were incubated for 72 h in a 37° C. incubator with 5% CO2, and the number of viable cells in each well were measured indirectly by CellTiter 96@ Aqueous One Solution Cell Proliferation Assay (Promega; this assay is a colorimetric method for determining the number of viable cells through measurement of their metabolic activity by detection of enzymatic conversion of tetrazolium salts into blue formazan derivatives). Reagent (20 μL) was added into each well, and the plates were returned to the incubator for 2 h. The absorbance in each well was then measured at 490 nm using an Envision plate reader (Perkin Elmer).

A value given as a limit tells only on which side of the number the result lay.

T1 sequence (P00533 with tags, fused parts or gaps DEL746-750/T790M): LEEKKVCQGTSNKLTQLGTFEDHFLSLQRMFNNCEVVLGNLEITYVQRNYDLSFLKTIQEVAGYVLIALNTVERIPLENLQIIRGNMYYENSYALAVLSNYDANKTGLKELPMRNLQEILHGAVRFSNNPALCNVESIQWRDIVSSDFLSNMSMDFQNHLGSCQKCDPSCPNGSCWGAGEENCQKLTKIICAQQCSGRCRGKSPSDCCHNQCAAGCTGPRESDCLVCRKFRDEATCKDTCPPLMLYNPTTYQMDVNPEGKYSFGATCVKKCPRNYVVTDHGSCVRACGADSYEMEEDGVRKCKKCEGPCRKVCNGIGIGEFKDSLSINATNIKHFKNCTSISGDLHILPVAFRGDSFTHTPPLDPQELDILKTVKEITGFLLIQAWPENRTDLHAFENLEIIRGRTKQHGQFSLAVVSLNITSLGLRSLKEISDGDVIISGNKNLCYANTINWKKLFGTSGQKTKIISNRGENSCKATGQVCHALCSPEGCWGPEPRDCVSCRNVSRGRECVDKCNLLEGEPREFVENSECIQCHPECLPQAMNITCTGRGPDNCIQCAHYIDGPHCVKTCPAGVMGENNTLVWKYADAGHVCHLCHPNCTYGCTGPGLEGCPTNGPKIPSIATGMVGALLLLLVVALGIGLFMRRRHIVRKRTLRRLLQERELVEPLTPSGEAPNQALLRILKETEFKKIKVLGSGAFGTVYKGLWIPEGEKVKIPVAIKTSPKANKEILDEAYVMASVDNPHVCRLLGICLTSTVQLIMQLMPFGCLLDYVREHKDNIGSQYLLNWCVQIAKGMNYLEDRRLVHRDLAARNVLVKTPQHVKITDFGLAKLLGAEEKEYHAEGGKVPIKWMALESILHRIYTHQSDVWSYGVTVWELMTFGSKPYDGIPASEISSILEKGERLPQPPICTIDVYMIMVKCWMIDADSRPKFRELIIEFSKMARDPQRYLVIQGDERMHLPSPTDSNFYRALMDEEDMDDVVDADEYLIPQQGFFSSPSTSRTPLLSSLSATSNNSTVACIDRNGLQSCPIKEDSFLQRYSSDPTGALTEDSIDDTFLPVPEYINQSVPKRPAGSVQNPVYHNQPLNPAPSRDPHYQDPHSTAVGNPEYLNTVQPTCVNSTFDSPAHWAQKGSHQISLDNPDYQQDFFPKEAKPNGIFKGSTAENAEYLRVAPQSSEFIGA

Regarding `C=CC(=O)Nc1cc(Nc2ncc(Cl)c(-c3cn4c5c(cccc35)CCC4)n2)c(OC)cc1N(C)CCN1CCN(C)CC1` [Example 25, N-(5-((5-chloro-4-(5,6-dihydro-4H-pyrrolo[3,2,1-ij]quinolin-1-yl)pyrimidin-2-yl)amino)-4-methoxy-2-(methyl(2-(4-methylpiperazin-1-yl)ethyl)amino)phenyl)acrylamide], the “EGFR exon 19 deletion and exon 20 T790M mutation IC50” value in test [1] was “A (IC50 value for the indicated mutant below about 100 nM)”. The IC50 was 100 to 500 nM in test [2] and > 1000 nM in test [3].

For `C=CC(=O)Nc1cc(Nc2ncc(Cl)c(-c3cn4c5c(cccc35)CCC4)n2)c(OC)cc1OCCN1CCN(C)CC1` [Example 21, N-(5-((5-chloro-4-(5,6-dihydro-4H-pyrrolo[3,2,1-ij]quinolin-1-yl)pyrimidin-2-yl)amino)-4-methoxy-2-(2-(4-methylpiperazin-1-yl)ethoxy)phenyl)acrylamide], the “EGFR exon 19 deletion and exon 20 T790M mutation IC50” value in test [1] is recorded as “A (IC50 value for the indicated mutant below about 100 nM)”. Besides, the IC50 in test [2] is 100 to 500 nM; in test [3], > 1000 nM.

On to `C=CC(=O)Nc1cc(Nc2ncc(CC)c(-c3cn4c5c(cccc35)CCC4)n2)c(OC)cc1N1CCN(C(C)=O)CC1` [Example 3, N-(2-(4-acetylpiperazin-1-yl)-5-((4-(5,6-dihydro-4H-pyrrolo[3,2,1-ij]quinolin-1-yl)-5-ethylpyrimidin-2-yl)amino)-4-methoxyphenyl)acrylamide], for which the “EGFR exon 19 deletion and exon 20 T790M mutation IC50” value in test [1] was “B (IC50 value for the indicated mutant between about 100 to about 500 nM)”. The IC50 in test [2] and in test [3] was > 1000 nM throughout.

Regarding `C=CC(=O)Nc1cc(Nc2ncc(Cl)c(-c3cn4c5c(cccc35)CCC4)n2)c(C)cc1N(C)CCN(C)C` [Example 13, N-(5-((5-chloro-4-(5,6-dihydro-4H-pyrrolo[3,2,1-ij]quinolin-1-yl)pyrimidin-2-yl)amino)-2-((2-(dimethylamino)ethyl)(methyl)amino)-4-methylphenyl)acrylamide], in test [1], the “EGFR exon 19 deletion and exon 20 T790M mutation IC50” value is “A (IC50 value for the indicated mutant below about 100 nM)”. The results for the IC50 in test [2] and in test [3] were < 100 nM and 100 to 500 nM, respectively.

For `C=CC(=O)Nc1cc(Nc2ncc(C3CC3)c(-c3cn4c5c(cccc35)CCC4)n2)c(OC)cc1N(C)CCN(C)C` [Example 28, N-(5-((5-cyclopropyl-4-(5,6-dihydro-4H-pyrrolo[3,2,1-ij]quinolin-1-yl)pyrimidin-2-yl)amino)-2-((2-(dimethylamino)ethyl)(methyl)amino)-4-methoxyphenyl)acrylamide], in test [1], the “EGFR exon 19 deletion and exon 20 T790M mutation IC50” value is “A (IC50 value for the indicated mutant below about 100 nM)”. Further, the IC50 in test [2] is < 100 nM; in test [3] it was 500 to 1000 nM.

`C=CC(=O)Nc1cc(Nc2ncc(C(C)C)c(-c3cn4c5c(cccc35)CCC4)n2)c(OC)cc1N(C)CCN(C)C` [Example 30, N-(5-((4-(5,6-dihydro-4H-pyrrolo[3,2,1-ij]quinolin-1-yl)-5-isopropylpyrimidin-2-yl)amino)-2-((2-(dimethylamino)ethyl)(methyl)amino)-4-methoxyphenyl)acrylamide]: the “EGFR exon 19 deletion and exon 20 T790M mutation IC50” value in test [1] is given as “A (IC50 value for the indicated mutant below about 100 nM)”. For the same molecule, the 50% inhibitory concentration (IC50) was in the range of 100 to 500 nM in test [2] and 500 to 1000 nM in test [3].

Consider `C=CC(=O)Nc1cc(Nc2ncc(Cl)c(-c3cn4c5c(cccc35)OCC4)n2)c(C)cc1N(C)CCN1CCCC1` [Example 79, N-(5-((5-chloro-4-(2,3-dihydro-[1,4]oxazino[2,3,4-hi]indol-6-yl)pyrimidin-2-yl)amino)-4-methyl-2-(methyl(2-(pyrrolidin-1-yl)ethyl)amino)phenyl)acrylamide], for which the “EGFR exon 19 deletion and exon 20 T790M mutation IC50” value in test [1] is reported as “A (IC50 value for the indicated mutant below about 100 nM)”. The IC50 in test [2] is < 100 nM; in test [3] it was 100 to 500 nM.

For `C=CC(=O)Nc1cc(Nc2ncc(C(=C)C)c(-c3cn4c5c(cccc35)CCC4)n2)c(OC)cc1N(C)CCN(C)C` [Example 29, N-(5-((4-(5,6-dihydro-4H-pyrrolo[3,2,1-ij]quinolin-1-yl)-5-(prop-1-en-2-yl)pyrimidin-2-yl)amino)-2-((2-(dimethylamino)ethyl)(methyl)amino)-4-methoxyphenyl)acrylamide], the “EGFR exon 19 deletion and exon 20 T790M mutation IC50” value in test [1] is “A (IC50 value for the indicated mutant below about 100 nM)”. The concentration for half-maximal inhibition (IC50) in test [2] and in test [3] was < 100 nM each time.

For the molecule `C=CC(=O)Nc1cc(Nc2ncc(Cl)c(-c3cn4c5c(cccc35)CCC4)n2)c(OC)cc1OCCN1CCCC1` [Example 20], the “EGFR exon 19 deletion and exon 20 T790M mutation IC50” value in test [1] is recorded as “A (IC50 value for the indicated mutant below about 100 nM)”. Moreover, the IC50 in test [2] lay within 100 to 500 nM; in test [3], 500 to 1000 nM.

For `C=CC(=O)Nc1cc(Nc2ncc(Cl)c(-c3cn4c5c(cccc35)CCC4)n2)c(OC)cc1OCCN1CCOCC1` [Example 22, N-(5-((5-chloro-4-(5,6-dihydro-4H-pyrrolo[3,2,1-ij]quinolin-1-yl)pyrimidin-2-yl)amino)-4-methoxy-2-(2-morpholinoethoxy)phenyl)acrylamide], in test [1], the “EGFR exon 19 deletion and exon 20 T790M mutation IC50” value is reported as “A (IC50 value for the indicated mutant below about 100 nM)”. Besides, the IC50 in test [2] is 100 to 500 nM; in test [3], > 1000 nM.

For the molecule `C=CC(=O)Nc1cc(Nc2ncc(Cl)c(-c3cn4c5c(cccc35)OCC4)n2)c(C)cc1OCCN1CCCC1` [Example 78, N-(5-((5-chloro-4-(2,3-dihydro-[1,4]oxazino[2,3,4-hi]indol-6-yl)pyrimidin-2-yl)amino)-4-methyl-2-(2-(pyrrolidin-1-yl)ethoxy)phenyl)acrylamide], in test [1], the “EGFR exon 19 deletion and exon 20 T790M mutation IC50” value was “A (IC50 value for the indicated mutant below about 100 nM)”. Besides, the IC50 in test [2] was < 100 nM; in test [3] it was 100 to 500 nM.

In test [3], `C=CC(=O)Nc1cc(Nc2nccc(-c3cn4c5c(cccc35)OCC4)n2)c(OC)cc1N(C)CCN(C)C` [Example 77, N-(5-((4-(2,3-dihydro-[1,4]oxazino[2,3,4-hi]indol-6-yl)pyrimidin-2-yl)amino)-2-((2-(dimethylamino)ethyl)(methyl)amino)-4-methoxyphenyl)acrylamide] showed an IC50 of 100 to 500 nM.

The values above are taken from patent publication US20170166598A1, “HETEROARYL COMPOUNDS FOR KINASE INHIBITION” (ARIAD PHARMACEUTICALS, INC., priority 2014, published 2017).
